The record followed here is US4281009A, “Hydantoin derivatives” (Nippon Zoki Pharmaceutical Co., Ltd., priority 1978, dated 1981).

Each structure is given as a SMILES string.

A short description of data set [1]: Acute toxicity test (LD50, Litchfield-Wilcoxon), mice. To be noted: mouse, in vivo, ip, intraperitoneal. As to the method:
(§1) Toxicity tests were carried out by intraperitoneal administration of the compound of the present invention to groups each comprising 10 ICR-strain mice and SD-strain rats. LD50 was calculated by the Litchfield-Wilcoxon method based on the number of death 72 hours after the administration.

For a further data set, the system named is ddY-strain male mice. The experiment in a line: Effect of prolongation of sleeping time (hexobarbital). Format: in vivo. Conditions: Mus musculus, ip, 100 mg/kg intraperitoneal. The procedure, abridged:
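Groups of 10 male ddY mice received compounds intraperitoneally along with intraperitoneal sodium hexobarbital. Loss of righting reflex was timed, and prolongation was measured against control mice.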

For data set [2], the system named is normal mice and SART stress mice. The experiment in a line: Analgesic effect, tail pressure method (Randall-Selitto's device). Conditions: Mus musculus; for change in vivo at 100 mg/kg: ip; for change in vivo at 500 mg/kg: po, peroral 500 mg/kg. Format: in vivo, mice (ddY-strain male). The procedure, abridged:
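Randall-Selitto tail pressure threshold measured 60 min after intraperitoneal dosing, expressed as post/pre-dose pressure ratio versus vehicle control (0.5% CMC-Na or 0.5% Tween 80, 10 ml/kg). For oral dosing, mean of readings at 30, 60, 90 and 120 min used.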

The test system is the same in data set [3]. The experiment in a line: Analgesic effect, acetic acid writhing method. Format: in vivo. To be noted: Mus musculus, sc, 100 mg/Kg subcutaneously. As to the method: 5.2. Acetic acid writhing method: 0.1 ml./10 g of isotonic sodium chloride solution containing 0.7% acetic acid was given intraperitoneally to groups of mice each comprising 5 normal mice and 5 SART stress mice to which SART stress had been applied for 8 days. Writhing syndromes number appeared for 15 minutes after the administration was measured. The effect was evaluated by giving 100 mg/Kg of the compounds of the present invention or DPH subcutaneously and comparing the writhing syndromes number of the mice with that of control mice.

The test system of the next data set is Wistar-strain male rats. Put plainly: Antiulcerogenic effect on Shay's ulcer (operative ulcer). Format: in vivo. To be noted: 10 times. Here is the method: 6.2. Antiulcerogenic effect on Shay's ulcer (operative ulcer):
Tests were carried out by using groups of rats each comprising 5-10 Wistar-strain male rats according to Shay method [Shay Harry; Gastroenterology,; 5, 43 (1945)]. Ulcers in the anterior stomach were classified on the following basis:
2. 1-5 small ulcers (diameter of less than 3 mm)
3. 6 or more small ulcers or one big ulcer (diameter of more than 3 mm)
4. two or more big ulcers

Data set [4] deals with dd-strain male mice. Put plainly: Inhibitory effect on Tremorine-induced tremor. Format: in vivo. To be noted: tremorine 10 mg/Kg. Here is the method: 9. Inhibitory effect on Tremorine-induced tremor:
Groups of mice each comprising 10-40 dd-strain male mice were used. Effect of the compounds of the present invention on tremor caused by tremorine was examined. The compounds of the present invention or DPH was given intraperitoneally. 45 minutes thereafter, 10 mg/Kg of tremorine was given intraperitoneally for inducing the tremor.

In data set [5] the test system is dd-strain male mice. Put plainly: Inhibitory effect on spontaneous motor activities (Animex method). Format: in vivo. To be noted: after 60 minutes. Here is the method: 4.1 Inhibitory effect on spontaneous motor activities:
Groups each comprising 8-16 dd-strain male mice were used. The compounds of the present invention were given intraperitoneally. After 60 minutes, spontaneous motor activities for 15 minutes were measured by the Animex method.

The next data set deals with SART stress mice. The experiment in a line: Inhibitory effects on increase of heart rate and elongation of QRS-time in SART stress mice. Format: in vivo, mice (dd-strain male). Conditions: 100 mg/kg/day, 9th day, Average ± S.D. As to the method:
SART stress animals used in the tests described below were raised according to a method of Kita, et al. [Folia Pharmacol. Japan.: 71, 195-210 (1975)].
2. Inhibitory effects on increase of heart rate and elongation of QRS-time in stress animals:
Groups of mice each comprising 11 or 12 dd-strain male mice were divided into three groups in the same manner as above and heart rate and QRS-time were determined on the 9th day after initiation of the tests.

Data set [6] in a line: Acute toxicity test (LD50, Litchfield-Wilcoxon), rats. To be noted: rat, in vivo, ip, intraperitoneal. Here is the method:
as §1

Data set [7] has as its system normal mice and SART stress mice. Put plainly: Analgesic effect, D'Amour-Smith method. The format is in vivo, mice (ddY-strain male). To be noted: Mus musculus; for responders at 200 mg/kg: ip, intraperitoneal 200 mg/kg; for responders at 500 mg/kg: po, peroral 500 mg/kg. In short, it runs like this: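 ddY male normal mice and mice under 4-day SART stress (n=10/group); black-inked tail root irradiated with infrared rays (up to 15 s cutoff), escape latency recorded. Effect expressed as proportion of mice whose mean latency at 30, 60, 90 and 120 min post-dose was at least 2× pre-dose latency.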

Data set [8] relates to dd-strain male mice. The experiment in a line: Inhibitory effect on exploratory movements. The format is in vivo. Conditions: 150 mg/kg intraperitoneal, after 60 minutes. As to the method: 4.2. Inhibitory effect on exploratory movements:
Groups each comprising 16-35 dd-strain male mice were used. The compounds of the present invention were given intraperitoneally. After 60 minutes, exploratory movements for 15 minutes were measured with an exploratory movement recorder by a method of Tokyo Kyoiku University.

In data set [9] the test system is dd-strain male mice. The experiment in a line: Antiulcerogenic effect on Takagi's restraint-plus-water-immersing ulcer. Format: in vivo. Here is the method: 6.1 Antiulcerogenic effect on Takagi's restraint-plus-water-immersing ulcer: Groups each comprising 8-26 dd-strain male mice were used. The tests were carried out according to a method of Takagi, et al. [Chem. Pharm. Bull.; 12, 465 (1964)]. Sum of length of diseased parts in the glandular stomach was measured and it was compared with that of control group. The compounds of the present invention or DPH was given intraperitoneally immediately before the restraint and immersion in water.

Data set [10] concerns normal rats and SART stress rats. Put plainly: Analgesic effect, pain induced by Bradykinin. The format is in vivo, rats (SD-strain male). Conditions: peroral 500 mg/kg. Here is the method:
5.4 Method of measuring a pain induced by Bradykinin:
Groups each comprising 4-8 SD-strain male normal rats and SART stress rats to which SART stress had been applied for 4 days were used. The tests were carried out according to the method of Deffenu et al. [Deffenu, G., Pegrassi, L., & Fumachi. B.; J. Pharm. Pharmacol.; 18, 135 (1966)] and Blane method [Blane, G. F.; J. Pharm. Pharmacol.; 19, 367 (1967)]. The effect judged was shown by ratio of the rats in which the effect was recognized according to the method of Abe, et al. [Abe, Kaneko & Takagi; Folia Pharmacol. Japon.; 67, 9-14 (1971)].

The subject of data set [11] is spontaneously hypertensive rats (SHR). The experiment in a line: Antihypertensive effect in spontaneously hypertensive rats. Format: in vivo. To be noted: 150 mg/Kg intraperitoneal, 60 minutes. As to the method:
8. Antihypertensive effect: Groups of rats each comprising 6-9 spontaneously hypertensive rats (SHR) were used. The compounds of the present invention or DPH was given intraperitoneally. The rate of antihypertension 60 minutes after the administration was determined.

As a reminder, the LD50 is the dose at which mortality reaches 50%. Low readings indicate greater toxicity, high ones lower toxicity. The inhibition in vivo is the drop in the measured response relative to a control, in per cent. In the case of `O=C1NC(=O)C(c2ccc(O)cc2)(c2cccs2)N1` (centres unmarked) [Compound 1, 5-(4-Hydroxyphenyl)-5-(2-thienyl)hydantoin], the LD50 at 72 h is 2000 to 3000 mg/kg in data set [1] (female), more than 3000 mg/kg in data set [1] (male), more than 3000 mg/kg in data set [6] (female) and more than 3000 mg/kg in data set [6] (male). Moreover, the change in vivo at 100 mg/kg in the data set with ddY-strain male mice stood at 36.9%; in data set [2] (1 h, SART stress mice, intraperitoneal 100 mg/kg, 60 minutes), 82.3%; in data set [2] (1 h, normal mice, intraperitoneal 100 mg/kg, 60 minutes), 26.9%. The inhibition in vivo at 100 mg/kg was 20.9% in [3] (SART stress mice) and 2.4% in data set [3] (normal mice). Besides, the “Antiulcerogenic effect on Shay's ulcer (operative ulcer)” value in the data set with Wistar-strain male rats (100 mg/kg intraperitoneal) is given as 14.6%; in the data set with Wistar-strain male rats (150 mg/kg intraperitoneal), 26.5%. Moreover, the “Inhibitory effect on Tremorine-induced tremor” value in the data set with dd-strain male mice [4] (150 mg/kg intraperitoneal) was found to be 33%. Further, the “Inhibitory effect on spontaneous motor activities” value with dd-strain male mice [5] (50 mg/kg intraperitoneal) was 22.4%; in the data set with dd-strain male mice [5] (150 mg/kg intraperitoneal), 30.7%. Also, in the data set on SART stress mice, the Heart rate was 741 ± 39 min⁻¹. For the same molecule, in the data set with SART stress mice, the QRS-time was 13.9 ± 0.8 1/1000 sec. Besides, the responders at 200 mg/kg in data set [7] (SART stress mice) amounted to 30%; in [7] (normal mice) it was 20%. In addition, in the data set on dd-strain male mice [8], the “Inhibitory effect on exploratory movements” value amounted to 33.2%. Besides, in the data set with dd-strain male mice [9] (Mus musculus, ip, 150 mg/kg intraperitoneal), the inhibition in vivo at 150 mg/kg amounted to 30.6%.
Take `O=C1NC(=O)C(c2ccccc2)(c2ccccc2)N1` [DPH, 5,5-diphenylhydantoin, reference compound]: the change in vivo at 100 mg/kg was 18.4% in data set [2] (SART stress mice, comparative drug intraperitoneal 100 mg/kg, average of 30, 60, 90 and 120 minutes); -33.1% in data set [2] (normal mice, comparative drug intraperitoneal 100 mg/kg, average of 30, 60, 90 and 120 minutes). The change in vivo at 500 mg/kg came out at 17.9% in [2] (SART stress mice, average of 30, 60, 90 and 120 minutes); 5.9% in [2] (normal mice, average of 30, 60, 90 and 120 minutes). Besides, the inhibition in vivo at 100 mg/kg in [3] (SART stress mice) is -6%; in [3] (normal mice), -16.3%; in the data set with dd-strain male mice [9] (Mus musculus, ip, 100 mg/kg intraperitoneal), 9%. The Analgesic effect in data set [10] (SART stress rats) and in data set [10] (normal rats) was 0% each time. Moreover, the “Inhibitory effect on Tremorine-induced tremor” value in the data set on dd-strain male mice [4] (50 mg/kg intraperitoneal) and with dd-strain male mice [4] (100 mg/kg intraperitoneal) was 0% in each case. Besides, the responders at 500 mg/kg in [7] (SART stress mice) and in data set [7] (normal mice) was 0% each time. In addition, the “Antiulcerogenic effect on Takagi's restraint-plus-water-immersing ulcer” value in the data set on dd-strain male mice [9] (50 mg/kg intraperitoneal) is 7.8%. The Rate of antihypertension in data set [11] is 6.6%.
